Measurements reported in patent US11279726B2, “Norbornene-based amphipathic compound and utilization thereof” (Industry-University Cooperation Foundation Hanyang …, priority 2017, dated 2022).
Entries after “also recorded” stand apart in the source; their conditions may differ.

What was measured:
[1] = tested on: leucine transporter (LeuT); assay: LeuT stability: [3H]-Leu substrate binding by scintillation proximity assay (SPA); set-up: species or system Aquifex aeolicus; details: t=12 day, CMC+0.04 wt %, room temperature
Description: An experiment for measuring the stability of LeuT protein with NBMs was performed. Concentrations of individual amphiphilic compounds were (a) CMC+0.04 wt % and (b) CMC+0.2 wt %, and the stability of the LeuT protein was evaluated by measuring a LeuT substrate binding activity using [3H]-Leu via scintillation proximity assay (SPA). The measurement was performed at regular intervals during 12-day incubation at room temperature. Specifically, a wild-type leucine transporter (LeuT) derived from thermophilic bacteria Aquifex aeolicus was purified by the method described previously (G. Deckert et al., Nature 1998, 392, 353-358). LeuT was expressed in E. coli C41 (DE3) transformed with pET16b encoding C-terminally 8× His-tagged transporter (the expression plasmid was provided by Dr E. Gouaux, Vollum Institute, Portland, Oreg., USA). […] Protein samples were stored for 12 days at room temperature, and centrifuged at predetermined points of time, the substrate ([3H]-leucine)-binding activity of the transporter was determined via SPA by taking advantage of protein properties. […] Total [3H]-leucine binding for the respective samples was measured using a MicroBeta liquid scintillation counter (Perkin Elmer).

[2] = molecular target: T1, uric acid-xanthine/H+ symporter (UapA) (Emericella nidulans, UniProt Q07307, G411V); assay: UapA extraction and thermal stability by fluorescence size exclusion chromatography (FSEC); set-up: species or system Aspergillus nidulans; details: 1.0 wt % amphiphile; for Retention of monodispersed UapA-GFP peak after heating (FSEC): 10 minutes at 40° C., compared with DDM
T1 construct: made in house; host or cells: Saccharomyces cerevisiae FGY217
Description: An experiment for measuring the structural stability of uric acid-xanthine/H+ symporter (UapA) isolated from Aspergillus nidulans using NBMs was performed. The structural stability of UapA was evaluated using […].
Specifically, UapAG411VΔ1-11 (hereinafter, referred to as “UapA”) was expressed as GFP fusion in Saccharomyces cerevisiae FGY217 strain and isolated in a sample buffer (20 mM Tris (pH 7.5), 150 mM NaCl, 0.03% DDM, 0.6 mM xanthine) according to the method described in the literature written by J. Leung et al. (Mol. Membr. Biol. 2013, 30, 32-42). Membranes containing UapA were resuspended in PBS, 10 mM imidazole pH 8.0, 150 mM NaCl, 10% glycerol, and the protein concentration was measured. The membranes were adjusted to a concentration of 1 mg·ml^−1 and 1 ml aliquots were individually incubated with DDM or NBMs at a final amphiphilic material concentration of 1.0 wt % for 10 minutes at 40° C. 100 μl aliquots were removed from each tube, and a fluorescence reading was taken for each sample before and after ultracentrifugation at 150,000 g for 10 minutes to remove insoluble material. The remaining soluble fraction for each condition was submitted to fluorescent size exclusion chromatography (FSEC) using a Superose 6 column (GE Healthcare) equilibrated with DDM.

[3] = molecular target: T2, human β2 adrenergic receptor (β2AR) (Homo sapiens, UniProt P07550); assay: β2AR stability: [3H]-DHA ligand binding activity of solubilized receptor; details: 0.2% amphiphile, room temperature, 3 days (7 days for receptor extracted with the amphiphile)
T2 construct: made in house
Description: An experiment of measuring the stability of human β2 adrenergic receptor (β2AR) and G-protein-coupled receptor (GPCR) for NBMs was carried out. That is, the receptor was extracted from the cell membranes by DDM and purified in the same amphiphilic compound. The DDM-purified receptor was diluted in individual DDM- or NBM-containing buffers to adjust the final compound concentration to be CMC+0.2 wt %. The receptor stability was assessed by measuring ligand binding activity using [3H]-DHA.
To measure long-term stability of human β2AR with NBMs (D-NBM-C11 and X-NBM-C11) showing an excellent ligand binding activity of the receptor in the previous experiment, a radio-labeled ligand binding experiment was performed by the following method. β2AR was purified using 0.1% DDM (D. M. Rosenbaum et al., Science, 2007, 318, 1266-1273), and finally concentrated to approximately 10 mg/ml (approximately 200 μM). A main binding mixture containing 10 nM [^3H]-DHA supplemented with 0.5 mg/ml BSA was prepared in 0.2% amphiphilic compound (DDM or NBMs (D-NBM-C11 and X-NBM-C11)) using β2AR purified with DDM. The receptor purified with DDM or NBMs was incubated with 10 nM [^3H]-DHA at room temperature for 30 minutes. The mixture was loaded onto a G-50 column, the fractions were collected in a 1 ml binding buffer (20 mM HEPES pH 7.5, 100 mM NaCl, containing 0.5 mg/ml BSA and 20× CMC individual amphiphilic compounds). In addition, each fraction was supplemented with a 15 ml scintillation fluid, and receptor-bound [^3H]-DHA was measured using a scintillation counter (Beckman) at regular intervals for 3 days. The binding capacity of [^3H]-DHA was shown as a bar chart (FIG. 11a).
In addition, β2AR was extracted from the membrane using 1.0 wt % of DDM or X-NBM-C11 and purified at 0.2 wt % for the same individual amphiphilic compounds. Structural stability of the receptor was assessed by ligand binding activity, which was measured with sample aliquots at regular intervals during 7-day incubation at room temperature. Each experiment was carried out in triplicate (FIG. 12b).

[4] = Hydrodynamic radius / size distribution of micelles by dynamic light scattering (DLS); format: physicochemical; details: for Rh (nm), hydrodynamic radius of micelles: 1.0 wt % agent; for Micelle size change with temperature: temperature-dependent (FIGS. 7a, 7b)
Description: A method for measuring the radius of a micelle is not particularly limited, and a method well known in the art may be used, and for example, the radius thereof may be measured using a dynamic light scattering (DLS) experiment.
To identify the characteristics of NBMs synthesized in Preparation Example 1 to 6 according to the synthetic method of Example 1, molecular weights (MWs) of NBMs, critical micelle concentrations (CMCs) and hydrodynamic radii (Rh) of the micelles were measured.
Specifically, the critical micelle concentrations (CMCs) were measured by fluorescent staining with diphenylhexatriene (DPH), and the hydrodynamic radii (Rh) of the micelle formed with individual agents (1.0 wt %) were measured by dynamic light scattering (DLS).

T2 sequence (P07550 whole entry): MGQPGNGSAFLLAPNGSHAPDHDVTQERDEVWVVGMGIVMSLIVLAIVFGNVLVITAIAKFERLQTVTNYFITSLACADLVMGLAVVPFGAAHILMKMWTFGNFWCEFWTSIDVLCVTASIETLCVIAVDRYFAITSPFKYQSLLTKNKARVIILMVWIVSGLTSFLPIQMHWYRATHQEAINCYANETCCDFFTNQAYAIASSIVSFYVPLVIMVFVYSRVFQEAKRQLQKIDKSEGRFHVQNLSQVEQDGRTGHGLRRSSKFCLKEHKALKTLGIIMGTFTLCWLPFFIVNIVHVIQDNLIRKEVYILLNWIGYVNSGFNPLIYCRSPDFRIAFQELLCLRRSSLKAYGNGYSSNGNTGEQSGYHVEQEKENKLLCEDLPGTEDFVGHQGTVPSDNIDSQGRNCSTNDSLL
T1 sequence (Q07307 12-574 G411V): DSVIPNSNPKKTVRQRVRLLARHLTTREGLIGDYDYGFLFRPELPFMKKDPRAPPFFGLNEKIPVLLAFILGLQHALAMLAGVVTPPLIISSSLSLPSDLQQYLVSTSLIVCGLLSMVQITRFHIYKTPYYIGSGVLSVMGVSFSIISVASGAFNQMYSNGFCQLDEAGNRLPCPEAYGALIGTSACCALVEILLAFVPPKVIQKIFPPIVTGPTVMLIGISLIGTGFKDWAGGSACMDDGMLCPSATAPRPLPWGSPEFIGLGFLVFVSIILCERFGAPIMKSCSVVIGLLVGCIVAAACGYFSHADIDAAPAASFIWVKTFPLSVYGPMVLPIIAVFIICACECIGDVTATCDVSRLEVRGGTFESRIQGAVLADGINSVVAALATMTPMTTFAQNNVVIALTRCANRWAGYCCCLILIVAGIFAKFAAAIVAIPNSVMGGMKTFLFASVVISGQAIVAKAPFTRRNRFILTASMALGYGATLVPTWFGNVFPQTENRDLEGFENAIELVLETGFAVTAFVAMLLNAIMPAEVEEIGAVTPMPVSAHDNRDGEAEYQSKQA

With `CCCCCCCCCCCOCC1C2CC([C@@H]1COCCCCCCCCCCC)[C@H](O[C@@H]1OC(CO)[C@@H](O[C@H]3OC(CO)[C@@H](O)C(O)C3O)C(O)C1O)C2O[C@@H]1OC(CO)[C@@H](O[C@H]2OC(CO)[C@@H](O)C(O)C2O)C(O)C1O` (stereo partly drawn) [D-NBM-C11] the “LeuT substrate binding activity at the end of incubation” value [1] was “a little less than the initial activity of LeuT solubilized in DDM”, the “Retention of monodispersed UapA-GFP peak after heating (FSEC)” value [2] was “a little better than DDM” and the “Long-term ligand binding activity of β2AR ([3H]-DHA)” value [3] was “well retained”. For the same compound, the “Rh (nm), hydrodynamic radius of micelles” value [4] was 3.7 ± 0.05 nm and the “Micelle size change with temperature” value [4] was “not influenced by a temperature change”.
In the case of `CCCCCCCCCCCOCC1C2CC([C@H]1COCCCCCCCCCCC)[C@H](O[C@@H]1OC(CO)[C@@H](O[C@H]3OC(CO)[C@@H](O)C(O)C3O)C(O)C1O)C2O[C@@H]1OC(CO)[C@@H](O[C@H]2OC(CO)[C@@H](O)C(O)C2O)C(O)C1O` (some centres unmarked) [X-NBM-C11], the “LeuT substrate binding activity at the end of incubation” value [1] is reported as “a little less than the initial activity of LeuT solubilized in DDM”, the “UapA extraction efficiency from the cell membrane” value [2] is reported as “almost quantitatively extract” and the “Retention of monodispersed UapA-GFP peak after heating (FSEC)” value [2] is reported as “substantially better than DDM”. The “Long-term ligand binding activity of β2AR ([3H]-DHA)” value [3] was “well retained; also recorded: highest ligand binding retention property”, the “Rh (nm), hydrodynamic radius of micelles” value [4] was 17.3 ± 0.10 nm and the “Micelle size change with temperature” value [4] was “changed according to a temperature”.
